The target in this test is Telomerase reverse transcriptase (Homo sapiens, UniProt O14746). The test can be described thus: Inhibitory activity against telomerase extracted from HCT 116 cell lines. In kind it is cell-free.

pIC50: −log10 of the molar value.

Sequence of Telomerase reverse transcriptase (O14746 whole entry): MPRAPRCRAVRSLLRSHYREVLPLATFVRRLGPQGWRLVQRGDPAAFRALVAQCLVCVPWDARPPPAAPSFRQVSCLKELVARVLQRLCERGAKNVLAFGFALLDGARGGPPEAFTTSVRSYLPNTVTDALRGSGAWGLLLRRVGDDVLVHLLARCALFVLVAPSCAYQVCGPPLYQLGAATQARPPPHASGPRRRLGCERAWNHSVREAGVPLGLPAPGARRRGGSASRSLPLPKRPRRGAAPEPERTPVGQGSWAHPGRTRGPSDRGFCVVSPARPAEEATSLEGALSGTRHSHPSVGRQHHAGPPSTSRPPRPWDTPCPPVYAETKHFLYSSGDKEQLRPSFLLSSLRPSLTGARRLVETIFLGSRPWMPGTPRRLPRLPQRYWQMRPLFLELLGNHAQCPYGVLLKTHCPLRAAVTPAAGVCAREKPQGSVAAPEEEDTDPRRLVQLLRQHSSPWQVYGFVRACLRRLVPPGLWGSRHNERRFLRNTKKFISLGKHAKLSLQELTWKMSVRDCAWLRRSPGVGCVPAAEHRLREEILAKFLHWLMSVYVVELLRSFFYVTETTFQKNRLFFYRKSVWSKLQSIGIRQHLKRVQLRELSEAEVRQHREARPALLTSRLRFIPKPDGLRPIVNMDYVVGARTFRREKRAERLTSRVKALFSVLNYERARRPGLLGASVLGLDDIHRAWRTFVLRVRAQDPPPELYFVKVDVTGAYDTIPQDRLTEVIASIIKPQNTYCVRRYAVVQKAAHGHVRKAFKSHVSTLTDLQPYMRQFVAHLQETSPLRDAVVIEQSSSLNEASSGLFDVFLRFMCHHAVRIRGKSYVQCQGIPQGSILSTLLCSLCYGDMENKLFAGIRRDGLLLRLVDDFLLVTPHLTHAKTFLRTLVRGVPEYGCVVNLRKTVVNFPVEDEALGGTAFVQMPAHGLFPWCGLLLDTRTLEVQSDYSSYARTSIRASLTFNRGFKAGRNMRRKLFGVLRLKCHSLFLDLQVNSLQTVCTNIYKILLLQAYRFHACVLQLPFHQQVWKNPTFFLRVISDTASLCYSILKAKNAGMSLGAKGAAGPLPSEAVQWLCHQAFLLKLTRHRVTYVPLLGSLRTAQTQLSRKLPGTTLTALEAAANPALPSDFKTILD

Compound `N[C@H](Cc1c[nH]c2ccccc12)C(=O)NCCCCCCCCCCCCOP(=O)(O)Oc1ccccc1Cl` showed a pIC50 of 4.34.
The value for `CC(C)(C)OC(=O)N[C@H](Cc1cc2ccccc2[nH]1)C(=O)N[C@H](Cc1c[nH]c2ccccc12)C(=O)NCCCC(=O)NCC(=O)NCCCCCCOP(=O)(O)Oc1ccccc1Cl` was less than 4.00.
The value for `Cc1cn(CCCn2cc(CC(=O)NCCCCCCOP(=O)(O)Oc3ccccc3Cl)c3ccccc32)c2ccccc12` was 4.53.
The compound `O=C(N[C@H](Cc1c[nH]c2ccccc12)C(=O)NCCCCCCCCCCCCOP(=O)(O)Oc1ccccc1Cl)[C@H]1CCCN1` showed a pIC50 of less than 4.00.
`N[C@H](CCC(=O)O)C(=O)N[C@H](Cc1c[nH]c2ccccc12)C(=O)NCCCCCCCCCCCCOP(=O)(O)Oc1ccccc1Cl` showed a pIC50 of less than 4.00.
The value for `O=C(CCCc1c[nH]c2ccccc12)NCCCCCCCCCCCCOP(=O)(O)Oc1ccccc1Cl` was 4.53.
On to `N[C@H](Cc1c[nH]c2ccccc12)C(=O)NCCCCCCOP(=O)(O)Oc1ccccc1Cl`, for which the pIC50 is less than 4.00.
The value for `CC(C)(C)OC(=O)N[C@H](Cc1ccccc1)C(=O)N[C@H](Cc1c[nH]c2ccccc12)C(=O)NCCCCCCCCCCCCOP(=O)(O)Oc1ccccc1Cl` was 5.17; that for `O=C(N[C@H](Cc1c[nH]c2ccccc12)C(=O)NCCCCCCCCCCCCOP(=O)(O)Oc1ccccc1Cl)c1ccccc1` was 5.14.
The value for `CC(C)(C)OC(=O)N[C@@H](Cc1ccccc1)C(=O)N[C@H](Cc1c[nH]c2ccccc12)C(=O)NCCCCCCCCCCCCOP(=O)(O)Oc1ccccc1Cl` was less than 4.00; that for `CC(C)(C)OC(=O)N[C@H](Cc1c[nH]c2ccccc12)C(=O)NCCCCCCOP(=O)(O)Oc1ccccc1Cl` was less than 4.00; that for `O=C(N[C@H](Cc1c[nH]c2ccccc12)C(=O)NCCCCCCCCCCCCOP(=O)(O)Oc1ccccc1Cl)OCc1ccccc1` was 5.44.
Turning to `CC(C)(C)OC(=O)N[C@H](CCC(=O)O)C(=O)N[C@H](Cc1c[nH]c2ccccc12)C(=O)NCCCCCCCCCCCCOP(=O)(O)Oc1ccccc1Cl`, the pIC50 is less than 4.00.
Turning to `Cc1cn(CCCn2cc(CC(=O)NCCCC(=O)NCC(=O)NCCCCCCOP(=O)(O)Oc3ccccc3Cl)c3ccccc32)c2ccccc12`, the pIC50 was less than 4.00.
The value for `CC(C)(C)OC(=O)N[C@@H](Cc1cc2ccccc2[nH]1)C(=O)N[C@@H](Cc1c[nH]c2ccccc12)C(=O)NCCCC(=O)NCC(=O)NCCCCCCOP(=O)(O)Oc1ccccc1Cl` was less than 4.00; that for `N[C@@H](Cc1cc2ccccc2[nH]1)C(=O)N[C@@H](Cc1c[nH]c2ccccc12)C(=O)NCCCCCCCCCCCCOP(=O)(O)Oc1ccccc1Cl` was 4.95.
In turn, `CC(C)(C)OC(=O)N[C@@H](Cc1cc2ccccc2[nH]1)C(=O)N[C@H](Cc1c[nH]c2ccccc12)C(=O)NCCCC(=O)NCC(=O)NCCCCCCOP(=O)(O)Oc1ccccc1Cl` gave a pIC50 of less than 4.00.
Compound `N[C@H](Cc1ccccc1)C(=O)N[C@H](Cc1c[nH]c2ccccc12)C(=O)NCCCCCCCCCCCCOP(=O)(O)Oc1ccccc1Cl` had a pIC50 of 4.66.
Under `Cc1cn(CCCn2cc(CC(=O)NCCCC(=O)N3CCCC3C(=O)NCCCCCCOP(=O)(O)Oc3ccccc3Cl)c3ccccc32)c2ccccc12` (stereo not drawn) stands 4.33; under `Cc1cn(CCCn2cc(CC(=O)NCCOCCOCCOCCOP(=O)(O)Oc3ccccc3Cl)c3ccccc32)c2ccccc12`, less than 4.00; under `CC(C)(C)OC(=O)N[C@H](Cc1cc2ccccc2[nH]1)C(=O)N[C@H](Cc1c[nH]c2ccccc12)C(=O)NCCCCCCCCCCCCOP(=O)(O)Oc1ccccc1Cl`, 4.72.
The value for `CC(C)(C)OC(=O)N[C@@H](Cc1cc2ccccc2[nH]1)C(=O)N[C@@H](Cc1c[nH]c2ccccc12)C(=O)NCCCCCCCCCCCCOP(=O)(O)Oc1ccccc1Cl` was 6.52; that for `O=C(CNC(=O)OCc1ccccc1)N[C@H](Cc1c[nH]c2ccccc12)C(=O)NCCCCCCCCCCCCOP(=O)(O)Oc1ccccc1Cl` was 4.92; that for `N[C@@H](Cc1cc2ccccc2[nH]1)C(=O)N[C@@H](Cc1c[nH]c2ccccc12)C(=O)NCCCC(=O)NCC(=O)NCCCCCCOP(=O)(O)Oc1ccccc1Cl` was less than 4.00.
Take `Cc1cn(CCCn2cc(CC(=O)NCCCCCCCCCCCCOP(=O)(O)Oc3ccccc3Cl)c3ccccc32)c2ccccc12`: the pIC50 was 5.44.
Under `CC(=O)N[C@H](Cc1c[nH]c2ccccc12)C(=O)NCCCCCCCCCCCCOP(=O)(O)Oc1ccccc1Cl` stands 4.04; under `CC(C)(C)OC(=O)N[C@H](Cc1c[nH]c2ccccc12)C(=O)NCCCCCCCCCCCCOP(=O)(O)Oc1ccccc1Cl`, 4.74; under `CC(C)(C)OC(=O)N[C@@H](Cc1c[nH]c2ccccc12)C(=O)NCCCCCCCCCCCCOP(=O)(O)Oc1ccccc1Cl`, 4.68.
Under `N[C@@H](Cc1c[nH]c2ccccc12)C(=O)NCCCCCCCCCCCCOP(=O)(O)Oc1ccccc1Cl` stands 4.82; under `O=C(Cc1c[nH]c2ccccc12)NCCCCCCCCCCCCOP(=O)(O)Oc1ccccc1Cl`, 4.47.
In the case of `N[C@@H](Cc1cc2ccccc2[nH]1)C(=O)N[C@H](Cc1c[nH]c2ccccc12)C(=O)NCCCC(=O)NCC(=O)NCCCCCCOP(=O)(O)Oc1ccccc1Cl`, the pIC50 was less than 4.00.
Under `O=C(N[C@H](Cc1ccccc1)C(=O)NCCCCCCCCCCCCOP(=O)(O)Oc1ccccc1Cl)OCc1ccccc1` stands less than 4.00; under `CC(C)(C)OC(=O)N1CCC[C@@H]1C(=O)N[C@H](Cc1c[nH]c2ccccc12)C(=O)NCCCCCCCCCCCCOP(=O)(O)Oc1ccccc1Cl`, 5.02.
The value for `CC(=O)N[C@H](Cc1cc2ccccc2[nH]1)C(=O)N[C@H](Cc1c[nH]c2ccccc12)C(=O)NCCCCCCCCCCCCOP(=O)(O)Oc1ccccc1Cl` was 4.64.
Under `CC(C)(C)OC(=O)N[C@H](CCC(=O)OCc1ccccc1)C(=O)N[C@H](Cc1c[nH]c2ccccc12)C(=O)NCCCCCCCCCCCCOP(=O)(O)Oc1ccccc1Cl` stands 5.19.
For `N[C@H](Cc1cc2ccccc2[nH]1)C(=O)N[C@H](Cc1c[nH]c2ccccc12)C(=O)NCCCC(=O)NCC(=O)NCCCCCCOP(=O)(O)Oc1ccccc1Cl`, the pIC50 is less than 4.00.
The value for `N[C@H](Cc1cc2ccccc2[nH]1)C(=O)N[C@H](Cc1c[nH]c2ccccc12)C(=O)NCCCCCCCCCCCCOP(=O)(O)Oc1ccccc1Cl` was 4.86.
The value for `CC(C)(C)OC(=O)N[C@H](Cc1cc2ccccc2[nH]1)C(=O)N[C@@H](Cc1c[nH]c2ccccc12)C(=O)NCCCC(=O)NCC(=O)NCCCCCCOP(=O)(O)Oc1ccccc1Cl` (mixture of isomers) was less than 4.00; that for `N[C@H](Cc1cc2ccccc2[nH]1)C(=O)N[C@@H](Cc1c[nH]c2ccccc12)C(=O)NCCCCCCCCCCCCOP(=O)(O)Oc1ccccc1Cl` (mixture of isomers) was 4.97; that for `N[C@@H](Cc1ccccc1)C(=O)N[C@H](Cc1c[nH]c2ccccc12)C(=O)NCCCCCCCCCCCCOP(=O)(O)Oc1ccccc1Cl` (mixture of isomers) was less than 4.00.
The value for `CC(C)(C)OC(=O)N[C@@H](Cc1cc2ccccc2[nH]1)C(=O)N[C@H](Cc1c[nH]c2ccccc12)C(=O)NCCCCCCCCCCCCOP(=O)(O)Oc1ccccc1Cl` (mixture of isomers) was less than 4.00; that for `N[C@H](Cc1cc2ccccc2[nH]1)C(=O)N[C@@H](Cc1c[nH]c2ccccc12)C(=O)NCCCC(=O)NCC(=O)NCCCCCCOP(=O)(O)Oc1ccccc1Cl` (racemic) was less than 4.00.
On to `CC(C)(C)OC(=O)N[C@H](Cc1cc2ccccc2[nH]1)C(=O)N[C@@H](Cc1c[nH]c2ccccc12)C(=O)NCCCCCCCCCCCCOP(=O)(O)Oc1ccccc1Cl` (racemic), for which the pIC50 was less than 4.00.

The values above are taken from ChEMBL document CHEMBL1133972, “Solid-Phase synthesis of a library constructed of aromatic phosphate, long alkyl chains and tryptophane components, and identification of potent dipeptide telomerase inhibitors” (Bioorg Med Chem Lett, 2001).
